The source of these data is US20130224115A1, “NON-RADIOACTIVE AGENTS FOR NEUROBLASTOMA IMAGING” (Baylor College of Medicine, priority 2010, published 2013).

For data set [1], the system named is NB1691.Luc xenograft. Kind of data set: In vivo NIR optical imaging of NB1691.Luc tumor xenografts in mice. The note with it: 7 days post inoculation, 10 nmol W765-BG, 3 nmol RGD-Cy5.5 i.v. The protocol:
(§1) Tumor xenografts: Four- to six-week-old female nude mice (18-22 g) (Taconic, Hudson, N.Y.) were housed and fed with sterilized pellet chow and sterilized water. Animals were maintained in a pathogen-free mouse colony. Tumor cells near confluence were harvested by incubation with 0.05% trypsin-EDTA. Cells were pelleted by centrifugation at 130×g for 5 min and resuspended in sterile phosphate-buffered saline (PBS). Approximately 1 million cells were implanted subcutaneously into the hind leg region of the mice. A total of 15 mice was used in this study.
Animal imaging. Tumors were visualized by intraperitoneal injection of 3 mg of VivoGlo Luciferin (Promega, Madison Wis.) before the imaging session, and pseudo into cyan. Ten nanomoles of W765-BG and 3 nanomoles of the vascular agent RGD-Cy5.5 were injected i.v. into the tumor-bearing mice prior to the imaging study. […] Vasculature images were recorded at wavelengths of ex/em 650/700 nm for RDG-Cy5.5 and pseudo colored into red. The W765-BG signal was recorded at wavelengths of ex/em 770/830 nm and pseudo colored into green. […]
In vivo imaging. Luciferase positive tumor cell could be detected as early as 4 days after inoculation (data not show). Different tumor growth patterns were detected at 7 days post inoculation. […]

The subject of data set [2] is human neuroblastoma xenograft. Kind of data set: Whole body and dissected organ imaging in the neuroblastoma xenograft mouse model (late stage tumor, imaging window). The format is in vivo, mice. The protocol: as §1
(§2) Animal imaging. Tumors were visualized by intraperitoneal injection of 3 mg of VivoGlo Luciferin (Promega, Madison Wis.) before the imaging session, and pseudo into cyan. Ten nanomoles of W765-BG and 3 nanomoles of the vascular agent RGD-Cy5.5 were injected i.v. into the tumor-bearing mice prior to the imaging study. The animals were imaged 1 to 9 days after the injection using the Kodak In-Vivo Multispectral System FX (Carestream Health Molecular Imaging, New Haven, Conn.). Vasculature images were recorded at wavelengths of ex/em 650/700 nm for RDG-Cy5.5 and pseudo colored into red. The W765-BG signal was recorded at wavelengths of ex/em 770/830 nm and pseudo colored into green. Tumor cells, vasculature, and W765-BG signals were precisely overlaid with anatomical X-ray images.
Late stage tumor, organ image and pathological analysis. Late stage tumor mass and organ imaging were performed after the injection of additional imaging agent (FIG. 5A-H). […] Gross necropsy confirmed the necrosis in the center of this tumor. H&E stain confirmed the identification of tumor (FIG. 5I), muscle (FIG. 5J), liver (FIG. 5K), kidney (FIG. 5L), and spleen (FIG. 5M) at pathological levels.

Data set [3] concerns human neuroblastoma cells (NPG.Luc cells). Kind of data set: NIR confocal microscopy of imaging agent uptake by neuroblastoma cells. It is filed as cell-based. The note with it: 50 μmolar, incubated overnight at 37° C., ex/em 765/810 nm. The protocol:
Cell lines. Human neuroblastoma cancer cell lines NB1691.1uc and SYFY.luc were cultured in Dulbecco's Modified Eagle's Medium supplemented with high glucose and F12 nutrient (DMEM/F12, Invitrogen, Carlsbad, Calif.) with 10% fetal bovine serum (Hyclone, Logan, Utah) in a humidified incubator maintained at 37° C. with 5% CO2.
Confocal microscope imaging. Cells were harvested from culture and incubated overnight at 37° C. with W765-BG imaging agent or NIR dye at final concentrations of 50 μmolar. Cells were washed in PBS, then incubated for 15 min at 4° C. with Sytox green (Molecular Probes) in 95% ethanol to fix the cells and stain cell nuclei. Stained cells were then transferred to a slide and mounted for microscopic examination. Images were recorded using an Olympus confocal microscope (Model: Fluorview 1000, Olympus America, Center Valley, Pa., USA). The microscope was equipped with excitation (Ex) light source and emission (Em) filters to detect and separate W765-BG or NIR dye (ex/em 765/810 nm) and cell nuclei (ex/em 488/510 nm) signals. In the microscopic images, signal intensities were recorded from one slice of 23 cell z-stacks with 0.5 micrometers gaps. Sytox green and W765-BG or NIR dye signals were pseudo colored into green (emission at 510 nm) and red (emission at 810 nm), respectively.
Imaging of W765-BG in neuroblastoma cells. To evaluate W765-BG as a potential specific molecule, its ability to uptakes by neuroblastoma cells was examined in vitro by NIR confocal microscopy. NPG.Luc cells were treated with W765-BG or free dye overnight at 37° C., after which they were washed, fixed, and visualized by confocal microscopy.
In vitro cell uptake imaging agent. Imaging agent uptake by the cells was recorded by confocal microscopy. The images show cell morphology (FIG. 3A), cell nuclei (FIG. 3B), and W765-BG uptakes by cells (FIG. 3C). […] Those results were validated by non-overlaid NIR images (FIG. 3G and FIG. 3H).

Data set [4] has as its system NGP.Luc xenograft. Kind of data set: In vivo NIR optical imaging of NGP.Luc tumor xenografts in mice. The protocol:
as §1, §2
Imaging of W765-BG in human tumor xenografts in mice. […] Tumor-bearing mice received an intraperitoneal injection of Luciferin to visualize the tumor cells, followed by an intravenous injection of W765-BG from the tail vein. Whole body images were collected at 24 h intervals over the course of eight days. Tumors were visualized by white light, X-ray and luciferase imaging (FIG. 2). […] When merging the optical signal of W765-BG with luciferase and anatomic X-ray images (FIG. 2E-2F), their precise overlay confirms the specificity of W765-BG.
In contrast, the NGP.Luc tumor was rather diffuse without a clear margin in the early tumor growth phase (FIG. 4G). The tumor vasculature developed better than in the NB1691.Luc tumor. […] The diffused tumor growth pattern also limited the W765-BG imaging findings in this stage (FIG. 4I). Once again, the merged images show the location of the tumor cells and the vasculature status (FIG. 4J to FIG. 4L). One week later, the tumor cells became more concentrated in one location (FIG. 4M). The vasculature surrounding the tumor node was well formed (FIG. 4N) and the TBR of the vasculature agent increased to 1.90. […] The two imaging agents were distributed differently in the body (FIG. 4P). […] Merged X-ray and W765-BG images confirmed the tumor size, location and W765-BG signal intensity (FIG. 4Q).

The subject of data set [5] is neuroblastomas. The note with it: Maris et al., 2007; cited from earlier work.

Structures are written as SMILES. Several values for one entry are separate records, joined by “and”; a condition that tells them apart may be missing. Equal values may be shown once. Entries after “also recorded” stand apart in the source; their conditions may differ.

Regarding `CC1(C)C(/C=C/C2=C(Oc3ccc(S(=O)(=O)O)cc3)C(=C/C=C3/N(CCCCCC(=O)NCC(=O)Nc4cccc(CNC(=N)N)c4)c4ccc(S(=O)(=O)O)cc4C3(C)C)/CCC2)=[N+](CCCCS(=O)(=O)O)c2ccc(S(=O)(=O)O)cc21` [Compound W765-BG, 2-(3-(IRdye800-Gly-amino)-benzyl)guanidine], the “tumor-to-background ratio (TBR)” value in data set [1] is 0.95; in data set [4] (NGP.Luc, early tumor growth phase (7 days post inoculation), 10 nmol W765-BG, 3 nmol RGD-Cy5.5 i.v.), 1.08; in data set [4] (NGP.Luc, one week later than the early stage images), 2.90 and 2.8. Also, the “whole body distribution of agent signal, late stage tumor” value in data set [2] (late stage tumor, after injection of additional imaging agent (FIG. 5B, 5C)) is given as “non-uniformly distributed in the tumor; also recorded: located only in the tumor region”. For the same compound, the “distribution of agent in dissected organs” value in data set [2] (late stage tumor, dissected organ images (FIG. 5F, 5G)) is “in the tumor, liver and spleen”. Also, the “imaging window post injection” value in data set [2] (post injection) is 8 to 9 days. For the same compound, in data set [2] (retroperitoneal area, whole body images), the “uptake by normal renal structures” value is “did not take up”. Besides, the “persistence of tumor specific optical signals once absorbed” value in data set [2] (xenograft mouse model) was “longer than one week”. The “uptake of agent by neuroblastoma cells (NIR signal in cells, confocal microscopy)” value in data set [3] was “detected inside the cells; also recorded: internalized into cells; also recorded: take up the W765-BG agent; also recorded: high uptake”. For the same compound, the “tumor to background ratio” value in data set [4] (24 hours after injection) is given as 1.95; in data set [4] (48 hours after injection), 1.98; in data set [4] (192 hours after injection), 1.52. Further, the “whole body location of NIR signal” value in data set [4] (48 hours after administration (FIG. 2)) was “detected in tumor region only”. Further, the “whole body distribution of agent signal” value in data set [4] (NGP.Luc, one week later than the early stage images (FIG. 4P)) is given as “mainly in the tumor region”. The “time optical signals were retained in the tumor after injection” value in data set [4] (after which signal strength gradually diminished) is given as “about 48 hours”.

`N=C(N)NCc1cccc([131I])c1` [MIBG, meta-iodobenzylguanidine]: in data set [5], the “proportion of neuroblastomas in which the agent can be selectively concentrated” value was “more than 90%”.

As to `CC1(C)C(/C=C/C2=C(Oc3ccc(S(=O)(=O)O)cc3)C(=C/C=C3/N(CCCCS(=O)(=O)O)c4ccc(S(=O)(=O)[O-])cc4C3(C)C)/CCC2)=[N+](CCCCCC(=O)O)c2ccc(S(=O)(=O)O)cc21` [free dye, IRDye800CW carboxylate, reference compound], the “uptake of agent by neuroblastoma cells (NIR signal in cells, confocal microscopy)” value in data set [3] and in data set [3] (listed as NIR dye) was “almost no detectable signal” throughout.
